Results from US9695155B2, “Herbicidal substituted pyrimidinyloxy benzene compounds” (E. I. DU PONT DE NEMOURS AND COMPANY, priority 2013, dated 2017).

Key:
[1] = system: large (Lg) crabgrass; experiment: Test C preemergence; type: in vivo, Digitaria sanguinalis; details: Digitaria sanguinalis, pre-emergence
Method in brief: (§1)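 Visual ratings on a 0–100 scale (100 = complete control) were made versus untreated controls after 13–15 greenhouse days. Chemicals in a surfactant-containing non-phytotoxic solvent were applied either preemergence to seeds in loam–sand soil or postemergence to 1- to 4-leaf plants 2–18 cm tall.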

[2] = system: wheat; experiment: Test A preemergence; type: in vivo, Triticum aestivum
Method in brief: (§2)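 Compounds in non-phytotoxic solvent with surfactant applied as soil spray preemergence, or postemergence to plants 2-10 cm at one- to two-leaf stage, in loam/sand. After approximately 10 days in greenhouse, injury rated visually versus untreated controls, 0 (no effect) to 100 (complete control).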

[3] = system: giant foxtail; experiment: Test C postemergence; type: in vivo, Setaria faberii; details: Setaria faberi, post-emergence
Method in brief: as §1

[4] = system: waterhemp; experiment: Test C postemergence; type: in vivo, Amaranthus rudis
Method in brief: as §1

[5] = system: large (Lg) crabgrass; experiment: Test A postemergence; type: in vivo, Digitaria sanguinalis; details: 0 to 100 scale where 0 is no effect and 100 is complete control
Method in brief: as §2

[6] = system: barnyardgrass; experiment: Test C postemergence; type: in vivo, Echinochloa crus-galli; details: Echinochloa crus-galli, post-emergence
Method in brief: as §1

[7] = system: corn; experiment: Test A preemergence; type: in vivo, Zea mays
Method in brief: as §2

[8] = system: chickweed; experiment: Test C postemergence; type: in vivo, Stellaria media; details: Stellaria media, post-emergence
Method in brief: as §1

[9] = system: sedge, umbrella; experiment: Test B flooded paddy test; type: in vivo, Cyperus difformis; details: Cyperus difformis, Flood, 250 g ai/ha; 0 to 100 scale where 0 is no effect and 100 is complete control; read-out: Plant response rating, Sedge, Umbrella
Method in brief: (§3)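 Compound added straight to paddy water, with pots kept flooded 3 cm above soil, on plants grown to the 2-leaf stage. Visual scoring 0-100 (100 = complete control) against untreated controls after 13 to 15 greenhouse days.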

[10] = system: corn; experiment: Test C postemergence; type: in vivo, Zea mays; details: Zea mays, post-emergence, postemergence
Method in brief: as §1

[11] = system: large (Lg) crabgrass; experiment: Test C postemergence; type: in vivo, Digitaria sanguinalis; details: Digitaria sanguinalis, post-emergence
Method in brief: as §1

[12] = system: barnyardgrass; experiment: Test B flooded paddy test; type: in vivo, Echinochloa crus-galli; details: Echinochloa crus-galli; Flood, 250 g ai/ha; 0 to 100 scale where 0 is no effect and 100 is complete control; read-out: Plant response rating, Barnyardgrass
Method in brief: as §3

[13] = system: wheat, winter; experiment: Test C postemergence; type: in vivo, Triticum aestivum
Method in brief: as §1

[14] = system: pigweed; experiment: Test C preemergence; type: in vivo, Amaranthus retroflexus; details: Amaranthus retroflexus, pre-emergence
Method in brief: as §1

[15] = system: lambsquarters; experiment: Test C postemergence; type: in vivo, Chenopodium album
Method in brief: as §1

[16] = 31 g ai/ha, postemergence, visual rating, scale 0 to 100 (0 no effect, 100 complete control), 13 to 15 days

In the case of FC(F)c1cccc(Oc2ncc(Cl)cn2)c1-n1cc(Br)cn1 [Compound 194, 2-[2-(4-bromo-1H-pyrazol-1-yl)-3-(difluoromethyl)phenoxy]-5-chloropyrimidine], the pest or weed control at 125 g/ha ([1]; 125 g ai/ha, preemergence, scale 0 (no effect) to 100 (complete control), read-out: Crabgrass, Large plant response rating) is reported as 100%, the pest or weed control at 250 g/ha ([1]; 250 g ai/ha, preemergence, scale 0 (no effect) to 100 (complete control), read-out: Crabgrass, Large plant response rating) is reported as 100% and the pest or weed control at 62 g/ha ([1]; Preemergence, 62 g ai/ha, scale 0 to 100, 0 no effect, 100 complete control, read-out: Plant response rating, Crabgrass, Large) is reported as 98%. The “Wheat plant response rating (0 to 100 scale)” value ([2]; 125 g ai/ha) was 20, the plant injury at 500 g/ha ([2]; Triticum aestivum, pre-emergence, 240 h, 500 g ai/ha, 0 to 100 scale where 0 is no effect and 100 is complete control, read-out: Wheat plant response rating) was 30% and the pest or weed control at 31 g/ha ([3]; 31 g ai/ha, postemergence, visual rating, scale 0 to 100 (0 no effect, 100 complete control), 13 to 15 days, read-out: Foxtail, Giant plant response rating) was 10%. It also gave a pest or weed control at 125 g/ha ([3]; 125 g ai/ha, postemergence, visual rating, scale 0 to 100 (0 no effect, 100 complete control), read-out: Plant response rating, Foxtail, Giant) of 15%, a pest or weed control at 250 g/ha ([3]; 250 g ai/ha, postemergence, read-out: Plant response rating (0 to 100), Foxtail, Giant) of 15% and a pest or weed control at 62 g/ha ([3]; Postemergence, 62 g ai/ha, scale 0 to 100 (0 no effect, 100 complete control), 13 to 15 days, read-out: Plant response rating, Foxtail, Giant) of 10%. The “Waterhemp plant response rating” value [4, 16] was 80, the pest or weed control at 125 g/ha ([4]; Amaranthus tuberculatus, post-emergence, 125 g ai/ha, postemergence, visual rating, scale 0 to 100 (0 no effect, 100 complete control), read-out: Plant response rating, Waterhemp) was 85% and the pest or weed control at 250 g/ha ([4]; Amaranthus tuberculatus, post-emergence, 250 g ai/ha, postemergence, read-out: Plant response rating (0 to 100), Waterhemp) was 90%. The pest or weed control at 62 g/ha ([4]; Amaranthus tuberculatus, post-emergence, Postemergence, 62 g ai/ha, scale 0 to 100 (0 no effect, 100 complete control), 13 to 15 days, read-out: Plant response rating, Waterhemp) was 80%, the “Crabgrass, Large plant response rating” value ([5]; 125 g ai/ha) was 90 and the pest or weed control at 500 g/ha ([5]; Digitaria sanguinalis, post-emergence, 240 h, 500 g ai/ha, read-out: Plant response rating, Crabgrass, Large) was 100%. The pest or weed control at 31 g/ha ([6]; 31 g ai/ha, postemergence, visual rating, scale 0 to 100 (0 no effect, 100 complete control), 13 to 15 days, read-out: Barnyardgrass plant response rating) was 5%, the pest or weed control at 125 g/ha ([6]; 125 g ai/ha, postemergence, visual rating, scale 0 to 100 (0 no effect, 100 complete control), read-out: Plant response rating, Barnyardgrass) was 15% and the pest or weed control at 250 g/ha ([6]; 250 g ai/ha, postemergence, read-out: Plant response rating (0 to 100), Barnyardgrass) was 55%. The pest or weed control at 62 g/ha ([6]; Postemergence, 62 g ai/ha, scale 0 to 100 (0 no effect, 100 complete control), read-out: Plant response rating, Barnyardgrass) was 5%, the “Corn plant response rating (0 to 100 scale)” value ([7]; 125 g ai/ha) was 30 and the plant injury at 500 g/ha ([7]; Zea mays, pre-emergence, 240 h, 500 g ai/ha, 0 to 100 scale where 0 is no effect and 100 is complete control, read-out: Corn plant response rating) was 50%. The pest or weed control at 31 g/ha ([8]; 31 g ai/ha, postemergence, visual rating, scale 0 to 100 (0 no effect, 100 complete control), 13 to 15 days, read-out: Chickweed plant response rating) was 50%, the pest or weed control at 125 g/ha ([8]; 125 g ai/ha, postemergence, visual rating, scale 0 to 100 (0 no effect, 100 complete control), read-out: Plant response rating, Chickweed) was 70% and the pest or weed control at 250 g/ha ([8]; 250 g ai/ha, postemergence, read-out: Plant response rating (0 to 100), Chickweed) was 85%. The pest or weed control at 62 g/ha ([8]; Postemergence, 62 g ai/ha, scale 0 to 100 (0 no effect, 100 complete control), 13 to 15 days, read-out: Plant response rating, Chickweed) was 70%, the pest or weed control at 250 g/ha [9] was 95% and the plant injury at 31 g/ha ([10]; 31 g ai/ha, visual rating, scale 0 to 100 (0 no effect, 100 complete control), 13 to 15 days, read-out: Corn plant response rating) was 5%. For the same compound, the Corn plant response rating (crop injury, 0 = no effect, 100 = complete kill) at 125 g/ha ([10]; 125 g ai/ha, visual rating, scale 0 to 100 (0 no effect, 100 complete control)) was 25%, the plant injury at 250 g/ha ([10]; 250 g ai/ha, read-out: Plant response rating (0 to 100), Corn) was 30% and the pest or weed control at 31 g/ha ([11]; 31 g ai/ha, postemergence, visual rating, scale 0 to 100 (0 no effect, 100 complete control), 13 to 15 days, read-out: Crabgrass, Large plant response rating) was 10%. For the same compound, the pest or weed control at 125 g/ha ([11]; 125 g ai/ha, postemergence, visual rating, scale 0 to 100 (0 no effect, 100 complete control), read-out: Plant response rating, Crabgrass, Large) was 10%, the pest or weed control at 250 g/ha ([11]; 250 g ai/ha, postemergence, read-out: Plant response rating (0 to 100), Crabgrass, Large) was 50% and the pest or weed control at 62 g/ha ([11]; Postemergence, 62 g ai/ha, scale 0 to 100 (0 no effect, 100 complete control), 13 to 15 days, read-out: Plant response rating, Crabgrass, Large) was 10%. The pest or weed control at 250 g/ha [12] was 0%, the “Wheat plant response rating” value [13, 16] was 0 and the plant injury at 125 g/ha ([13]; Triticum aestivum, post-emergence, 125 g ai/ha, postemergence, visual rating, scale 0 to 100 (0 no effect, 100 complete control), read-out: Plant response rating, Wheat) was 0%. The plant injury at 250 g/ha ([13]; Triticum aestivum, post-emergence, 250 g ai/ha, postemergence, read-out: Plant response rating (0 to 100), Wheat) was 5%, the plant injury at 62 g/ha ([13]; Triticum aestivum, post-emergence, Postemergence, 62 g ai/ha, scale 0 to 100 (0 no effect, 100 complete control), 13 to 15 days, read-out: Plant response rating, Wheat) was 0% and the pest or weed control at 125 g/ha ([14]; 125 g ai/ha, preemergence, scale 0 (no effect) to 100 (complete control), read-out: Pigweed plant response rating) was 100%. The pest or weed control at 250 g/ha ([14]; 250 g ai/ha, preemergence, scale 0 (no effect) to 100 (complete control), read-out: Pigweed plant response rating) was 100%, the pest or weed control at 62 g/ha ([14]; Preemergence, 62 g ai/ha, scale 0 to 100, 0 no effect, 100 complete control, read-out: Plant response rating, Pigweed) was 100% and the “Lambsquarters plant response rating” value [15, 16] was 60. The pest or weed control at 125 g/ha ([15]; Chenopodium album, post-emergence, 125 g ai/ha, postemergence, visual rating, scale 0 to 100 (0 no effect, 100 complete control), read-out: Plant response rating, Lambsquarters) was 90%, the pest or weed control at 250 g/ha ([15]; Chenopodium album, post-emergence, 250 g ai/ha, postemergence, read-out: Plant response rating (0 to 100), Lambsquarters) was 98% and the pest or weed control at 62 g/ha ([15]; Chenopodium album, post-emergence, Postemergence, 62 g ai/ha, scale 0 to 100 (0 no effect, 100 complete control), 13 to 15 days, read-out: Plant response rating, Lambsquarters) was 80%.
